Values joined by “and” are separate entries in the source; they are usually repeats but may differ in a detail not shown here. Identical values can stand only once. Counter-ions that a name gives are not always drawn. Like-named read-outs stand apart in the source and are kept apart here.

Data on three compounds can be found in patent US20220000777A1, “LIPOSOMAL ENHANCED INTRA-PERITONEAL CHEMOTHERAPY” (TESORX PHARMA, LLC, priority 2018, published 2022).

The subject of series [1] is ovarian cancer. Conditions: intraperitoneal cisplatin regimen, versus 41 months, p=0.02; cited from earlier work.
The conditions of series [2]: cited from earlier work.
The test system of series [3] is OVCAR3-RFP human ovarian cancer cells. Briefly: sulforhodamine B (SRB) assay, dosage curves and IC50. Format: cell-based. Conditions: 72 h treatment; for IC50: Homo sapiens, 72 h. On the procedure:
Example 1. Determination of paclitaxel […] in TSD-001-treated human ovarian cancer cells. A sulforhodamine B (SRB) assay-based approach was employed to determine the inhibitory concentration (IC)50 of paclitaxel against OVCAR3-RFP human ovarian cancer cells (Anticancer Inc.) treated with the TSD-001 paclitaxel liposomal formulation (Paclitaxel:DMPC:DMPG=1:1.43:0.567). For use in the assay, lyophilized TSD-001 was reconstituted in sterile injectable-grade water to a concentration of 6 mg/mL and subsequently serially diluted in RPMI cell culture medium (RPMI-1640 with L-glutamine, Corning). Three separate dosage curve assays were performed. In two of the assays, the serial dilutions of TSD-001 ranged from 0.05 μg/mL to 0.391 ng/mL, and in the third assay, the serial dilutions of TSD-001 ranged from 0.0128 μg/mL to 2.147 ng/mL.
Serial dilutions of the Abraxane® paclitaxel formulation (nanoparticle albuminbound paclitaxel) and doxorubicin HCl were also prepared to perform comparative dosage curve assays in OVCAR3-RFP cells. For these assays, lyophilized Abraxane® was dissolved in RPMI medium to a concentration of 1 mg/mL, and doxorubicin HCl was dissolved in a small amount of DMSO, and the diluted in RPMI medium to a concentration of 1 mg/mL. Three separate dosage curve assays were performed for Abraxane®. In one assay, the serial dilutions of Abraxane® ranged from 0.04 μg/mL to 0.078 ng/mL. In the second assay, the serial dilutions of Abraxane® ranged from 0.04 μg/mL to 8.39 ng/mL and in the third assay, the serial dilutions of Abraxane® ranged from 0.032 μg/mL to 8.39 ng/mL. […]
OVCAR3-RFP cells were seeded onto 96-well clear flat-bottom polystyrene tissue culture plates (Corning) at a density of approximately 5×10^3 cells/well in 200 μl of RPMI. […] Protein-bound SRB was detected by adding 200 μl 10 mM Tris base solution (pH 10.5) to each well, followed by placing the plate(s) on a byratory shaker for 5 minutes to allow the Tris solution to solubilize SRB. The plates were read using a microplate reader at an absorbance of 510 nm. […]
On the technique in general: Sulforhodamine B stains cellular protein and so reports cell mass.

In series [4] the test system is ovarian cancer. The note with it: cited from earlier work.

As to `N.N.[Cl][Pt][Cl]` [cisplatin, Cis-diamminedichloroplatinum(10)], in series [1], the overall survival median is listed as 49 months. Further, the “peritoneal cavity exposure to greater concentrations than possible with systemic therapy delivery” value in series [2] (in vivo, ip) is on record as 10-20 fold.
`COc1cccc2c1C(=O)c1c(O)c3c(c(O)c1C2=O)C[C@@](O)(C(=O)CO)C[C@@H]3O[C@H]1C[C@H](N)[C@H](O)[C@H](C)O1` [doxorubicin HCl]: the IC50 in series [3] (Table 1, combined data, read-out: Mean IC50 (μg/mL) against OVCAR3-RFP cells (n ≥ 5)) worked out at 0.191 ± 0.0835 µg/mL; in series [3] (single dosage curve assay, n=3 or 4 wells/concentration, read-out: IC50 at 72 h.), 0.17 µg/mL. Further, the “IC50 at 72 h.” value in series [3] (single dosage curve assay, n=3 or 4 wells/concentration, HCl) is 0.1322 µg/mL and 0.166 µg/mL.
As to `CC(=O)O[C@H]1C(=O)[C@@]2(C)[C@H]([C@H](OC(=O)c3ccccc3)[C@]3(O)C[C@H](OC(=O)[C@H](O)[C@@H](NC(=O)c4ccccc4)c4ccccc4)C(C)=C1C3(C)C)[C@]1(OC(C)=O)CO[C@@H]1C[C@@H]2O` [paclitaxel], in series [4] (intraperitoneal 60 mg/m^2 per week for 16 weeks, microscopic residual patients), the surgical complete response is given as 61%. Moreover, in series [4] (intraperitoneal 60 mg/m^2 per week for 16 weeks, women with macroscopic residual cancer), the complete response result was “one of the 31”. The dose-limiting toxicity result in series [4] (intraperitoneal use, Phase 1 study) is reported as “abdominal pain”. In addition, in series [2] (intraperitoneal versus systemic delivery), the “peritoneal cavity exposure to greater concentrations than possible with systemic therapy delivery” value is “greater than 1000 fold”.
